The target of experiment [1] is T1, CDKs and other kinases (Homo sapiens, UniProt P24941).
T1 construct: other: CDK2A; residual activity (%) at 10 μM CDK2A; compound at 10 μM
Put plainly: Radiometric kinase assay (Eurofins Pharma Discovery or Reaction Biology Corporation Kinase Profiler). It is filed as biochemical. The following applies: CDK2A; for Ki: read-out: CDK inhibition, Ki (μM) CDK2A; for remaining activity at 10 µM: compound at 10 μM, read-out: residual activity (%) at 10 μM CDK2A. Put shortly:
(§1)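 Other CDKs and further kinases were profiled externally by radiometric assay. In-house ADP Glo assays covered CDK4/D1 and CDK6/D3 (RB-CTF substrate, pH 7.5 Tris buffer with MgCl2, DTT, BSA) and CDK9/T1 (RBER-IRStide substrate), 40 min at 37° C.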

The target in experiment [2] is T2, CDKs and other kinases (Homo sapiens, UniProt P50613).
T2 construct: other: CDK7H; residual activity (%) at 10 μM CDK7H; compound at 10 μM
T2 sequence (P50613 whole entry): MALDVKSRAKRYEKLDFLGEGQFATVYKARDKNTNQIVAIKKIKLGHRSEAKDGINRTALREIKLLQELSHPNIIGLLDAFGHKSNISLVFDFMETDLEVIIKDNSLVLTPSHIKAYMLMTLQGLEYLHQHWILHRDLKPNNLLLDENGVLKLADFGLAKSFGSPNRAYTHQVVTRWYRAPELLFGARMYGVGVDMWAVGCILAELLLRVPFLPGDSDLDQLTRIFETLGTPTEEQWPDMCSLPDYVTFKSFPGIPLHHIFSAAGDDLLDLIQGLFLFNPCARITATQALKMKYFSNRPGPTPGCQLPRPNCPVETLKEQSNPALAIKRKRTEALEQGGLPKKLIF
The description is as above. It is filed as biochemical. The conditions noted are these: CDK7H; for Ki: read-out: CDK inhibition, Ki (μM) CDK7H; for remaining activity at 10 µM: compound at 10 μM, read-out: residual activity (%) at 10 μM CDK7H. In outline:
as §1

Experiment [3] deals with T3, CDKs and other kinases (Homo sapiens, UniProt P06493).
T3 construct: other: CDK1B; residual activity (%) at 10 μM CDK1B; compound at 10 μM
T3 sequence (P06493 whole entry): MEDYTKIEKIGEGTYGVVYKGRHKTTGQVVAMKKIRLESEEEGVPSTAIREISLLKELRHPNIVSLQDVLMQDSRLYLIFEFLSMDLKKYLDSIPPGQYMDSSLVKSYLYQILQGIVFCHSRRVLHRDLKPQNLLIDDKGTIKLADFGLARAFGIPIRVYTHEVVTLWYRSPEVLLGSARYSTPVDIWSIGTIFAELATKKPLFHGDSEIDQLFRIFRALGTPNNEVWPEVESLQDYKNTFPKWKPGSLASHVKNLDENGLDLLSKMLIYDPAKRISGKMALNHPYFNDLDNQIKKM
The description is as above. It is filed as biochemical. The following applies: CDK1B; for Ki: read-out: CDK inhibition, Ki (μM) CDK1B; for remaining activity at 10 µM: compound at 10 μM, read-out: residual activity (%) at 10 μM CDK1B. In outline: as §1

The next experiment addresses CDK4/D1 (Homo sapiens, UniProt P11802). Put plainly: ADP Glo Kinase assay CDK4/D1. It is filed as biochemical. The conditions noted are these: CDK4D1; for remaining activity at 10 µM: compound at 10 μM, read-out: residual activity (%) at 10 μM CDK4D1. Put shortly: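 In-house ADP-Glo assay: CDK4/D1 or CDK6/D3 with RB-CTF substrate in […] Tris pH 7.5, 20 mM MgCl2, 0.4 mM DTT, 0.1 mg/ml BSA; ATP-started, 40 min at 37° C.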
A general note: In ADP-Glo the light output rises with the ADP produced.

The target in another experiment is CDK9/T1 (Homo sapiens, UniProt P50750). Put plainly: ADP Glo Kinase assay CDK9/T1. It is filed as biochemical. The conditions noted are these: CDK9T1; read-out: CDK inhibition, Ki (μM) CDK9T1. Put shortly:
as §1

Another experiment addresses CDK6/D3 (Homo sapiens, UniProt Q00534). Put plainly: ADP Glo Kinase assay CDK6/D3. It is filed as biochemical. The following applies: CDK6D3; for remaining activity at 10 µM: compound at 10 μM, read-out: residual activity (%) at 10 μM CDK6D3. As to the method:
Eurofins Pharma Discovery or Reaction Biology Corporation Kinase Profiler services were used to measure inhibition of CDKs and other kinases by radiometric assay. Inhibition of CDK4/D1, CDK6/D3 and CDK9/T1 were also determined in-house using ADP Glo Kinase assays (Promega Corporation, Madison, USA). Briefly, the kinase reaction for CDK4/D1 and CDK6/D3 was performed with kinase reaction buffer ([…] Tris base pH 7.5, 20 mM MgCl2, 0.4 mM DTT), 0.1 mg/ml BSA and RB-CTF substrate (retinoblastoma protein 1 C-terminal fraction). For CDK9/CyclinT1, the kinase reaction was performed with standard assay buffer and Kinase Dilution Buffer and RBER-IRStide substrate. Serial dilutions of 1:3 were prepared for test compounds for 10 concentrations (from 10 μM to 0.5 nM). The kinase reactions were started by addition of ATP, incubated for 40 min at 37° C. and then stopped by adding 10 μL of ADP Glo reagent. After incubation at room temperature in the dark for 40 min, 20 μL of kinase detection reagent was added per well and incubated for 40 min. Luminescence was measured using an EnVision Multilabel plate reader (PerkinElmer, Buckinghamshire, UK). Positive and negative controls were performed in the presence and absence of CDK kinases, respectively. Half-maximal inhibition (IC50) values were calculated using a 4-parameter logistic non-linear regression model with Graphpad prism (Version 6.0). Apparent inhibition constants (Ki) values were calculated from Km (ATP) and IC50 values for the respective kinases.

The next experiment relates to leukemia cell lines. Put plainly: Resazurin cell viability assay on leukemia cell lines (72 h growth inhibition, GI50). Type of experiment: cell-based. The conditions noted are these: Homo sapiens, MV4-11 cells. In outline:
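MTT assay for solid tumour lines and resazurin assay for leukaemia lines, run by reported methods. GI50, the concentration giving 50% growth inhibition, was obtained by non-linear regression.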

CDK4/D1, sequence (P11802 whole entry): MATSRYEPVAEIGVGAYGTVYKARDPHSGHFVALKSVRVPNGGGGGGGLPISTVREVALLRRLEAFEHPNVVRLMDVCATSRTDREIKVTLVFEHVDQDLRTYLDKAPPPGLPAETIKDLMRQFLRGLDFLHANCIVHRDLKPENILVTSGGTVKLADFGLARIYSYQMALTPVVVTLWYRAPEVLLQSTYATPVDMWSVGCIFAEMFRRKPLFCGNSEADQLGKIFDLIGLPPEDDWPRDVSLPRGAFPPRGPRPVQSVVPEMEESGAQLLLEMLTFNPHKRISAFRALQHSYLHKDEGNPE
CDK4/D1, sequence (P24385 whole entry partner): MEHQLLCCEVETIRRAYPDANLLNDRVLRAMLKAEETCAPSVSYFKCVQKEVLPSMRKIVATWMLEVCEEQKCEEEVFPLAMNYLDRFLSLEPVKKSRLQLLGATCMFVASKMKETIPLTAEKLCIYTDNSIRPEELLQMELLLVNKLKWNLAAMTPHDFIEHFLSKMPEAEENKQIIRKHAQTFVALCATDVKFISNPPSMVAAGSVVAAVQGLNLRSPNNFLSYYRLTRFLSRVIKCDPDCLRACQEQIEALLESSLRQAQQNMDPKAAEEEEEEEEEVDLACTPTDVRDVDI
CDK6/D3, sequence (Q00534 whole entry): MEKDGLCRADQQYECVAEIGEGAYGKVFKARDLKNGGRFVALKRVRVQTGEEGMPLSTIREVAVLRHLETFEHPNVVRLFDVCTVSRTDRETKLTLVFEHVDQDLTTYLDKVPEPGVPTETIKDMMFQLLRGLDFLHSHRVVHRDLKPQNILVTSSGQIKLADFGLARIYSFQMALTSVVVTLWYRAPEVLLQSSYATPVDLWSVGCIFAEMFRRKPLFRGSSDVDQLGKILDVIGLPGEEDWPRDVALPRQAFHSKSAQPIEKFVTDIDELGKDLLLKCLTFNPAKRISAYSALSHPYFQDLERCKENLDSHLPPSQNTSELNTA
CDK6/D3, sequence (P30281 whole entry partner): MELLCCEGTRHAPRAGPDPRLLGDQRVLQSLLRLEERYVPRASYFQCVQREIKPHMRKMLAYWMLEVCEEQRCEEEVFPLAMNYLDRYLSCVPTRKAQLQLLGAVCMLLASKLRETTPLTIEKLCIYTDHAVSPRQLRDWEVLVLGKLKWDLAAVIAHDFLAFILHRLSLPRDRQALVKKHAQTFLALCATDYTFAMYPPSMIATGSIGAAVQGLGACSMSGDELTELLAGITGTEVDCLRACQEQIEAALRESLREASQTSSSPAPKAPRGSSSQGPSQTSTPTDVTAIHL
CDK9/T1, sequence (P50750 whole entry): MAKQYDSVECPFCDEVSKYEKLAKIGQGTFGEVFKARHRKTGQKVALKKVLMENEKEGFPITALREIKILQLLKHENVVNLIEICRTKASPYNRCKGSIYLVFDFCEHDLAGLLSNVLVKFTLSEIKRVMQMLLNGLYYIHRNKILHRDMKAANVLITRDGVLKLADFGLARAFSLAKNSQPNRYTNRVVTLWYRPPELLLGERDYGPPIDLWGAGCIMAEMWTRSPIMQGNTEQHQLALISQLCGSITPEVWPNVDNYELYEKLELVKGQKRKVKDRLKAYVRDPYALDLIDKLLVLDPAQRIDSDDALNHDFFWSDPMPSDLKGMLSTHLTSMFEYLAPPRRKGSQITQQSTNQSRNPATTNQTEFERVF
CDK9/T1, sequence (O60563 whole entry partner): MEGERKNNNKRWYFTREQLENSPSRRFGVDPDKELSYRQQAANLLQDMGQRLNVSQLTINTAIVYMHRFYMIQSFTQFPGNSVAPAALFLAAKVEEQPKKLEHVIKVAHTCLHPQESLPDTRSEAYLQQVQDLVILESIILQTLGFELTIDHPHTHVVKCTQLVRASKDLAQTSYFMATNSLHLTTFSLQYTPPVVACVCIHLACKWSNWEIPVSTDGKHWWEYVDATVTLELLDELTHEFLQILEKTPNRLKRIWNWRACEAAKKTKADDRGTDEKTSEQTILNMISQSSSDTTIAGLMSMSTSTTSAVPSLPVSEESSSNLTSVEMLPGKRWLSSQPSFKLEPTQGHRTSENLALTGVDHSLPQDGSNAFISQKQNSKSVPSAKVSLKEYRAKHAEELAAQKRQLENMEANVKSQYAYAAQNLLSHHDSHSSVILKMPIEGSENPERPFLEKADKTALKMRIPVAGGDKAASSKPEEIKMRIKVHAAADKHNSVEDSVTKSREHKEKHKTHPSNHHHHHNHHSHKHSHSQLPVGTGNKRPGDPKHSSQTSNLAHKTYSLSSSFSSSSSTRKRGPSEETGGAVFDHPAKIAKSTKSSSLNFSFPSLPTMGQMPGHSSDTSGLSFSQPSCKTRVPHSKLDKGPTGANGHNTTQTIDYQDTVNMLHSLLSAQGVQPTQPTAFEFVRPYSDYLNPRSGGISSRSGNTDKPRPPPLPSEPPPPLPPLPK

By Ki is commonly meant a measure of affinity in units of concentration, obtained from inhibition or displacement. Usually GI50 stands for the concentration at which growth is held to half of that of the control. With `Cc1cnc(N[C@H]2CC[C@H](N)CC2)nc1-c1cnc2ccc(NCc3ccc(F)cc3)cn12` [Compound 32, (1r,4r)-N^1-(4-(6-((4-Fluorobenzyl)amino)imidazo[1,2-a]pyridin-3-yl)-5-methylpyrimidin-2-yl)cyclohexane-1,4-diamine], the Ki at CDKs and other kinases [1] is 0.63 µM; on CDKs and other kinases [2], 5.39 µM; at CDKs and other kinases [3], above 10 µM; at CDK9/T1, 0.094 µM. Further, the remaining activity at 10 µM was 16% on CDK4/D1 and 36% on CDK6/D3. In the experiment on leukemia cell lines, the concentration for 50% growth inhibition (GI50) turned out to be 0.066 ± 0.014 µM.
In the case of `N[C@H]1CC[C@H](Nc2ncc(F)c(-c3cnc4ccc(NC(=O)c5ccc(F)cc5)cn34)n2)CC1` [Compound 51, N-(3-(2-(((1r,4r)-4-Aminocyclohexyl)amino)-5-fluoropyrimidin-4-yl)imidazo[1,2-a]pyridin-6-yl)-4-fluorobenzamide], the remaining activity at 10 µM at CDKs and other kinases [1] was 4%; on CDKs and other kinases [2], 6%; on CDKs and other kinases [3] it was 4%; at CDK4/D1 it was 0%; on CDK6/D3, 22%. Further, at CDK9/T1, the Ki stood at 0.006 µM. The GI50 in the experiment with leukemia cell lines is 0.001 µM.
As for `COc1cnc(N[C@H]2CC[C@H](N)CC2)nc1-c1cnc2ccccn12` [Compound 11, (1r,4r)-N^1-(4-(Imidazo[1,2-a]pyridin-3-yl)-5-methoxypyrimidin-2-yl)cyclohexane-1,4-diamine], the remaining activity at 10 µM at CDKs and other kinases [1] was found to be 63%; on CDKs and other kinases [2], 26%; at CDKs and other kinases [3], 75%; on CDK4/D1, 40%; at CDK6/D3 it was 27%. At CDK9/T1, the Ki was found to be 0.291 µM. Also, in the experiment with leukemia cell lines, the GI50 worked out at 0.009 ± 0.001 µM.
For `Cc1cnc(N[C@H]2CC[C@H](N)CC2)nc1-c1cnc2ccc(Nc3ccncn3)cn12` [Compound 116, (1r,4r)-N^1-(5-Methyl-4-(6-(pyrimidin-4-ylamino)imidazo [1,2-a]pyridin-3-yl)pyrimidin-2-yl)cyclohexane-1,4-diamine], the remaining activity at 10 µM was determined as 18% at CDK4/D1 and 86% at CDK6/D3. Also, on CDK9/T1, the Ki amounted to 0.106 µM. The GI50 in the experiment on leukemia cell lines worked out at 0.885 ± 0.137 µM.
For `Cc1ccc2ncc(-c3nc(N[C@H]4CC[C@H](N)CC4)ncc3F)n2c1` [Compound 4, (1r,4r)-N^1-(5-Fluoro-4-(6-methylimidazo[1,2-a]pyridin-3-yl)pyrimidin-2-yl)cyclohexane-1,4-diamine], the remaining activity at 10 µM on CDKs and other kinases [1] was 2%; at CDKs and other kinases [3], 1%; on CDK4/D1, 0%; on CDK6/D3 it was 2%. The Ki on CDK9/T1 amounted to 0.003 µM. It took 0.004 ± 0.001 µM to inhibit growth with leukemia cell lines by half (GI50).
Regarding `N[C@H]1CC[C@H](Nc2ncc(Cl)c(-c3cnc4ccc(Nc5cncnc5)cn34)n2)CC1` [Compound 88, (1r,4r)-N^1-(5-Chloro-4-(6-(pyrimidin-5-ylamino)imidazo [1,2-a]pyridin-3-yl)pyrimidin-2-yl)cyclohexane-1,4-diamine], the Ki at CDKs and other kinases [1] was found to be 0.019 µM; at CDKs and other kinases [2], 1.26 µM; on CDKs and other kinases [3] it was 0.16 µM; on CDK4/D1 (read-out: CDK inhibition, Ki (μM) CDK4D1), 0.06 µM; on CDK9/T1 it was 0.002 µM; on CDK6/D3 (read-out: CDK inhibition, Ki (μM) CDK6D3), 0.034 µM.
In the case of `N[C@H]1CC[C@H](Nc2ncc(-c3ccccc3)c(-c3cnc4ccc(-c5ccccc5)cn34)n2)CC1` [Compound 80, (1r,4r)-N^1-(5-Phenyl-4-(6-phenylimidazo[1,2-a]pyridin-3-yl)pyrimidin-2-yl)cyclohexane-1,4-diamine], the remaining activity at 10 µM worked out at 61% at CDK4/D1 and 54% on CDK6/D3. On CDK9/T1, the Ki came to 0.2 µM. This compound also gave a 50% growth inhibitory concentration (GI50) in the experiment on leukemia cell lines of 0.243 ± 0.053 µM.
One may read the residual activity as the signal under treatment as a percentage of the control signal. As for `Cc1cnc(N[C@H]2CC[C@H](N)CC2)nc1-c1cnc2ccc(Nc3cncc(C(F)(F)F)c3)cn12` [Compound 65, (1r,4r)-N^1-(5-Methyl-4-(6-((5-(trifluoromethyl)pyridin-3-yl)amino)imidazo[1,2-a]pyridin-3-yl)pyrimidin-2-yl) cyclohexane-1,4-diamine], the remaining activity at 10 µM on CDKs and other kinases [1] was 12%; at CDKs and other kinases [2] it was 31%; at CDKs and other kinases [3], 32%; at CDK6/D3 it was 24%. Further, at CDK4/D1, the residual activity at 10 µM came out at 125%. The Ki at CDK9/T1 was 0.024 µM.
Regarding `N[C@H]1CC[C@H](Nc2ncc(F)c(-c3cnc4ccc(F)cn34)n2)CC1` [Compound 2, (1r,4r)-N^1-(5-Fluoro-4-(6-fluoroimidazo[1,2-a]pyridin-3-yl)pyrimidin-2-yl)cyclohexane-1,4-diamine], the Ki at CDKs and other kinases [1] is 0.012 µM; on CDKs and other kinases [2] it was 0.034 µM; on CDKs and other kinases [3] it was 0.085 µM; on CDK9/T1, 0.005 µM. Also, the remaining activity at 10 µM on CDK6/D3 was 5%. In the experiment with leukemia cell lines, this compound gave a GI50 of 0.006 ± 0.001 µM.
With `Cc1cnc(N[C@H]2CC[C@H](N)CC2)nc1-c1cnc2ccc(N(C)c3cccnc3)cn12` [Compound 122, (1r,4r)-N^1-(5-Methyl-4-(6-(methyl(pyridin-3-yl)amino)imidazo[1,2-a]pyridin-3-yl)pyrimidin-2-yl)cyclohexane-1,4-diamine], the inhibitory constant (Ki) was found to be 1.15 µM at CDKs and other kinases [1]; 1.16 µM on CDKs and other kinases [2]; 1.71 µM on CDKs and other kinases [3]; 0.3 µM at CDK9/T1. Besides, the remaining activity at 10 µM at CDK4/D1 was determined as 71%; on CDK6/D3, 44%.
On to `C[C@]12C[C@]3(C)C[C@](O)(C1)C[C@](Nc1ncc(F)c(-c4cnc5ccc(-c6ccccc6)cn45)n1)(C2)C3` [Compound 110, (1s,3r,5R,7S)-3-((5-Fluoro-4-(6-phenylimidazo[1,2-a]pyridin-3-yl)pyrimidin-2-yl)amino)-5,7-dimethyladamantan-1-ol], for which the remaining activity at 10 µM at CDKs and other kinases [1] is 61%; on CDKs and other kinases [2], 87%; on CDKs and other kinases [3], 66%; at CDK4/D1, 99%; on CDK6/D3, 100%. Also, the Ki on CDK9/T1 is above 5 µM.
For `Cc1cnc(N[C@H]2CC[C@H](N)CC2)nc1-c1cnc2ccc(Oc3cncnc3)cn12` [Compound 75, (1r,4r)-N^1-(5-Methyl-4-(6-(pyrimidin-5-yloxy)imidazo [1,2-a]pyridin-3-yl)pyrimidin-2-yl)cyclohexane-1,4-diamine], the remaining activity at 10 µM came to 22% at CDKs and other kinases [1]; 50% at CDKs and other kinases [2]; 52% at CDKs and other kinases [3]; 41% at CDK4/D1; 46% on CDK6/D3. Also, on CDK9/T1, the Ki is 0.034 µM.
For the compound `CS(=O)(=O)N[C@H]1CC[C@H](Nc2ncc(F)c(-c3cnc4ccccn34)n2)CC1` [Compound 16, N-((1r,4r)-4-((5-Fluoro-4-(imidazo[1,2-a]pyridin-3-yl)pyrimidin-2-yl)amino)cyclohexyl)methanesulfonamide], the inhibition constant (Ki) at CDKs and other kinases [1] was determined as 0.001 µM; on CDK9/T1, 0.029 µM. Also, the remaining activity at 10 µM at CDKs and other kinases [2] amounted to 50%; at CDK6/D3, 32%. In the experiment with leukemia cell lines, the GI50 came out at 0.01 ± 0.001 µM.

The record behind these values is patent US11111245B2, “Derivatives of N-cycloalkyl/heterocycloalkyl-4-(imidazo[1,2-a]pyridine)pyrimidin-2-amine as therapeutic agents” (Aucentra Therapeutics Pty Ltd, priority 2017, dated 2021).
